Laboratory results published in BigSolDB 2.1.

CC(C)(C)c1cc(O)c(C(C)(C)C)cc1O
Settings	solubility (mole fraction)
in acetone, 283.35 K	0.0332
in acetone, 285.65 K	0.0365
in acetone, 288.25 K	0.0413
in acetone, 290.55 K	0.0456
in acetone, 293.15 K	0.0519
in acetone, 295.35 K	0.057
in acetone, 298.05 K	0.0636
in acetone, 300.35 K	0.0691
in acetone, 303.15 K	0.0775
in acetone, 305.45 K	0.0836
in acetone, 308.05 K	0.0929
in acetone, 310.25 K	0.1
in acetone, 313.05 K	0.12
in acetone, 316.15 K	0.123
in acetone, 319.15 K	0.136
in acetone, 321.15 K	0.148
in acetone, 323.15 K	0.161
in ethyl acetate, 278.95 K	0.144
in ethyl acetate, 281.55 K	0.145
in ethyl acetate, 284.45 K	0.146
in ethyl acetate, 287.35 K	0.148
in ethyl acetate, 290.45 K	0.148
in ethyl acetate, 293.15 K	0.15
in ethyl acetate, 296.25 K	0.151
in ethyl acetate, 298.85 K	0.153
in ethyl acetate, 301.85 K	0.155
in ethyl acetate, 304.75 K	0.157
in ethyl acetate, 307.45 K	0.158
in ethyl acetate, 310.45 K	0.161
in ethyl acetate, 312.35 K	0.163
in ethyl acetate, 316.15 K	0.166
in ethyl acetate, 319.15 K	0.169
in ethyl acetate, 322.15 K	0.17
in ethyl acetate, 325.15 K	0.173
in ethyl acetate, 328.15 K	0.177
in ethyl acetate, 331.15 K	0.18
in ethyl acetate, 335.15 K	0.183
in ethyl acetate, 337.15 K	0.186
in ethyl acetate, 340.15 K	0.188
in ethyl acetate, 343.15 K	0.194
in ethyl acetate, 346.15 K	0.195
in methanol, 280.95 K	0.0647
in methanol, 283.55 K	0.065
in methanol, 285.95 K	0.0651
in methanol, 288.15 K	0.0653
in methanol, 290.65 K	0.0658
in methanol, 293.15 K	0.0667
in methanol, 295.55 K	0.0678
in methanol, 297.95 K	0.0688
in methanol, 300.65 K	0.0697
in methanol, 302.65 K	0.0707
in methanol, 305.15 K	0.0712
in methanol, 307.25 K	0.072
in methanol, 309.85 K	0.0727
in methanol, 312.05 K	0.0734
in methanol, 316.15 K	0.0766
in methanol, 319.15 K	0.078
in methanol, 322.15 K	0.08
in methanol, 325.15 K	0.0811
in methanol, 328.15 K	0.0833
in methanol, 331.15 K	0.0849
in methanol, 333.15 K	0.0863
